# Tested on: caspase 3/7
# Assay: Caspase-Glo 3/7 Assay in iFECD stimulated with TGF-β2
# Type: cell-based, human
# Settings: TGF-β2 10 ng/ml, Dunnett-t test, n=5
# Method: The medium was removed from a culture dish in which iFECDs were being cultured, and the cells were supplemented with 1×PBS (−) that was preheated to 37° C., and were washed. This was repeated twice. The cells were supplemented again with 1×PBS (−) and incubated for 3 minutes at 37° C. (5% CO2). After removing the PBS (−), the cells were supplemented with 0.05% Trypsin-EDTA (Nacalai Tesque, 32778-34) and incubated for 5 minutes at 37° C. (5% CO2). The cells were then suspended in a medium, and collected by centrifugation at 1500 rpm for 3 minutes. DMEM (Nacalai Tesque, 08456-36)+10% FBS (Biowest, S1820-500)+1% P/S (Nacalai Tesque, 26252-94) was used as the medium.
# Corneal endothelial cells from immortalized FECD patients (lot: iFECD3-5) were seeded on a 96-well plate at a ratio of 4×10^3 cells per well and cultured for 24 hours at 37° C. (5% CO2) (medium: DMEM+10% FBS+1% P/S). After 24 hours, the medium was removed. Each mTOR inhibitor was added to culture the cells for 24 hours (medium: DMEM+2% FBS+1% P/S). After 24 hours, the medium was removed. Media containing 10 ng/ml of Recombinant Human TGF-β2 (Wako, 200-19911) and each mTOR inhibitor were added to culture the cells for 24 hours (medium: DMEM+2% FBS+1% P/S). After 24 hours, the cell morphology and apoptosis were observed under a phase difference microscope.
# After observation, measurement of caspase 3/7 activity by Caspase-Glo® 3/7 Assay was carried out with the following procedure.
# The medium was discarded to achieve 50 μl per well. 50 μl/well of Caspase Glo® 3/7 Assay Reagent (mixture of Caspase-Glo® 3/7 Assay Buffer and Caspase-Glo® 3/7 Assay Substrate) (Promega, G8091) solution was added so as to achieve 1:1 with the medium. The operations hereafter were carried out while being shaded. A shaker was used to mix the content well for two minutes at about 120 minutes^−1 to then be left for 40 minutes at room temperature. After being left, 80 μl was moved to Assay plate (Corning, 3912, Assay plate 96 well, white polystyrene) and […] was measured using GloMax-Multi Detection System (Promega, E7051).
# The following mTOR inhibitors were used in this Example. • Rapamycin (Wako, #53123-88-9) • Everolimus (Cayman Chemical, #11597) • Temsirolimus (Tocris Bioscience, #5264) • PI-103 (Cayman Chemical, #10009209) • CC-223 (Cayman Chemical, #19917) • INK128 (Cayman Chemical, #11811) • AZD8055 (Cayman Chemical, #16978) • KU 0063794 (Tocris Bioscience, #3725)
Compound,activity of caspase 3/7 compared to control (0.001 μM),activity of caspase 3/7 compared to control (0.01 μM),activity of caspase 3/7 compared to control (0.1 μM),activity of caspase 3/7 compared to control (1 μM),activity of caspase 3/7 compared to control (0.00001 μM),activity of caspase 3/7 compared to control (0.0001 μM),activity of caspase 3/7 compared to control (0.000001 μM),activity of caspase 3/7 compared to control (10 μM)
Oc1cccc(-c2nc(N3CCOCC3)c3oc4ncccc4c3n2)c1 [PI-103],significantly suppressed,significantly suppressed,significantly suppressed,significant difference was not found,–,–,–,–
COc1ccc(-c2ccc3c(N4CCOC[C@@H]4C)nc(N4CCOC[C@@H]4C)nc3n2)cc1CO [AZD8055],–,significantly suppressed,significantly suppressed,significantly suppressed,–,–,–,–
"CO[C@H]1C[C@@H]2CC[C@@H](C)[C@@](O)(O2)C(=O)C(=O)N2CCCC[C@H]2C(=O)O[C@H]([C@H](C)C[C@@H]2CC[C@@H](OC(=O)C(C)(CO)CO)[C@H](OC)C2)CC(=O)[C@H](C)/C=C(\C)[C@@H](O)[C@@H](OC)C(=O)[C@H](C)C[C@H](C)/C=C/C=C/C=C/1C [temsirolimus, Temsirolimus]",significantly suppressed,significantly suppressed,significantly suppressed,significantly suppressed,significantly suppressed,significantly suppressed,significant difference was not found,significantly suppressed

# More lines, now with the values ahead:
activity of caspase 3/7 compared to control (0.001 μM),activity of caspase 3/7 compared to control (0.01 μM),activity of caspase 3/7 compared to control (0.1 μM),activity of caspase 3/7 compared to control (1 μM),activity of caspase 3/7 compared to control (0.00001 μM),activity of caspase 3/7 compared to control (0.0001 μM),activity of caspase 3/7 compared to control (0.000001 μM),activity of caspase 3/7 compared to control (10 μM),Compound
significantly suppressed,significantly suppressed,significantly suppressed,–,significantly suppresses,significantly suppressed,–,–,"CO[C@H]1C[C@@H]2CC[C@@H](C)[C@@](O)(O2)C(=O)C(=O)N2CCCC[C@H]2C(=O)O[C@H]([C@H](C)C[C@@H]2CC[C@@H](OCCO)[C@H](OC)C2)CC(=O)[C@H](C)/C=C(\C)[C@@H](O)[C@@H](OC)C(=O)[C@H](C)C[C@H](C)/C=C/C=C/C=C/1C [everolimus, Everolimus]"
significantly suppressed,significantly suppressed,significantly suppressed,significantly suppressed,–,–,–,–,CO[C@H]1CC[C@H](N2C(=O)CNc3ncc(-c4ccc(C(C)(C)O)nc4)nc32)CC1 [CC-223]
significant difference was not found,significant difference was not found,significantly suppressed,significantly suppressed,–,–,–,–,COc1ccc(-c2ccc3c(N4CCOCC4)nc(N4C[C@@H](C)O[C@@H](C)C4)nc3n2)cc1CO [KU 0063794]
significantly suppressed,significantly suppressed,significantly suppressed,significantly suppressed,–,–,–,–,CC(C)n1nc(-c2ccc3oc(N)nc3c2)c2c(N)ncnc21 [INK128]

# Source: patent US11433090B2, “mTOR-inhibitor-containing medicine for treating or preventing ophthalmic symptoms, disorders, or diseases, and application thereof” (The Doshisha, priority 2017, dated 2022)
